Test [1] deals with T1, XIAP bir3 domain (GST-XIAP BIR3RING) (Homo sapiens, UniProt P98170).
T1 construct: made in house; host or cells: E. coli DH5-alpha
In words: Fluorescence polarization-based competition assay, XIAP. In kind it is binding. To be noted: Ki calculated from displacement of fluorescent probe; read-out: Fluorescent polarization (FP) assay Xiap. As to the method: GST-XIAP BIR3RING: XIAP coding sequence amino acids 246-497 cloned into PGEX2T1 via BamH1 and AVA I. The plasmid was transformed into E. coli DH5a for use in protein expression and purification.
(§1) A fluorescent peptide probe, Fmoc-Ala-Val-Pro-Phe-Tyr(t-Bu)-Leu-Pro-[…]-Gly-OH was prepared using standard Fmoc chemistry on 2-chlorotrityl chloride resin (Int. J. Pept. Prot. Res. 38:555-561, 1991). Cleavage from the resin was performed using 20% acetic acid in dichloromehane (DCM), which left the side chain still blocked. The C-terminal protected carboxylic acid was coupled to 4′-(aminomethy)fluorescein (Molecular Probes, A-1351; Eugene, Oreg.) using excess diisopropylcarbodiimide (DIC) in dimethylformamide (DMF) at room temperature and was purified by silica gel chromatography (10% methanol in DCM). The N-terminal Fmoc protecting group was removed using piperidine (20%) in DMF, and purified by silica gel chromatography (20% methanol in DCM, 0.5% HOAc). Finally, the t-butyl side chain protective groups were removed using 95% trifluoroacetic acid containing 2.5% water and 2.5% triisopropyl silane.
(§2) For all assays, the fluorescence and fluorescence-polarization was evaluated using a Tecan Polarion instrument with the excitation filter set at 485 nm and the emission filter set at 535 nm. For each assay, the concentration of the target protein was first establish by titration of the selected protein in order to produce a linear dose-response signal when incubated alone in the presence of the fluorescent probe. Upon establishing these conditions, the compounds potency (IC50) and selectivity, was assessed in the presence of a fix defined amount of target protein and fluorescent probe and a 10 point serial dilution of the selected compounds. For each IC50 curve, the assays were run as followed: 25 ul/well of diluted compound in 50 mM MES buffer pH 6.5 were added into a black 96 well plate then 25 ul/well of bovine serum albumin (BSA) at 0.5 mg/ml in 50 mM MES pH 6.5. Auto-fluorescence for each compound was first assessed by performing a reading of the compound/BSA solution alone. Then 25 ul of the fluorescein probe diluted into 50 mM MES containing 0.05 mg/ml BSA were added and a reading to detect quenching of fluorescein signal done. Finally 25 ul/well of the target or control protein (GST-BIRs) diluted at the appropriate concentration in 50 mM MES containing 0.05 mg/ml BSA were added and the fluorescence polarization evaluated.
(§3) For each assay the relative polarization-fluorescence units were plotted against the final concentrations of compound and the IC50 calculated using the Grad pad prism software and/or Cambridge soft. The ki value were derived from the calculated IC50 value as described above and according to the equation described in Nikolovska-Coleska, Z. (2004) Anal Biochem 332, 261-273.

In test [2] the test system is MDA-MB-231 (breast) cancer cells. In words: Cell viability (MTT) assay, MDA cells. Particulars: Homo sapiens, MDA-MB-231, 72 h, MTT based assay. As to the method:
(§4) MDA-MD-231 (breast) and SKOV-3 (ovarian) cancer cells were cultured in RPMI1640 media supplemented with 10% FBS and 100 units/mL of Penicillin and Steptomycin.
(§5) Viability assays were done on a number of cells including MDA-MB-231, SKOV-3, H460, PC3, HCT-116, and SW480 cells. Cells were seeded in 96 well plates at a respective density of 5000 and 2000 cells per well and incubated at 37° C. in presence of 5% CO2 for 24 hours. Selected compounds were diluted into the media at various concentration ranging from 0.01 uM up to 100 uM. Diluted compounds were added onto the MDA-MB-231 cells. For the MDA-MB-231 SKOV3, H460, PC3, HCT-116, and SW480 cells, the compounds were added either alone or in presence of 1-3 ng/ml of TRAIL. After 72 hours cellular viability was evaluated by MTT based assays.
Background: Tetrazolium dyes change colour on reduction, which living cells bring about.

Test [3] concerns SKOV-3 (ovarian) cancer cells. Description: Cell viability (MTT) assay, SKOV3 cells. Particulars: 72 hours, MTT based assay; compounds added either alone or in presence of 1-3 ng/ml of TRAIL. The procedure: as §4, §5
The target in test [4] is T2, XIAP L-Bir2-Bir3 (GST-XIAP Linker Bir2Bir3RING fusion protein) (Homo sapiens, UniProt P98170).
T2 construct: made in house; host or cells: E. coli DH5-alpha
T2 sequence (P98170 93-497): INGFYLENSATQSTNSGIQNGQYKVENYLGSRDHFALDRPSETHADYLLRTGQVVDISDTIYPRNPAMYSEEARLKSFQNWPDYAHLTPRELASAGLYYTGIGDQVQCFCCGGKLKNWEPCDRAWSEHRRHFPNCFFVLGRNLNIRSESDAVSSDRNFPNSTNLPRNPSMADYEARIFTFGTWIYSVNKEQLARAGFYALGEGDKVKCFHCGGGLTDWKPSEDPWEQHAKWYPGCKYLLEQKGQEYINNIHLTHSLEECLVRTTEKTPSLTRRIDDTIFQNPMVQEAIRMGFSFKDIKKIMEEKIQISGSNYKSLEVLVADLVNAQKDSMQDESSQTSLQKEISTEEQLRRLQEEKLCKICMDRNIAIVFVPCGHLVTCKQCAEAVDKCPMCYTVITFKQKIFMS
Description: Caspase de-repression assay using cellular extracts (apoptosome), L-Bir2-Bir3 XIAP. To be noted: 293 cell S100 extract; effective concentration to achieve 50% of activation. In kind it is biochemical. The procedure:
GST-linker BIR2BIR3Ring: XIAP coding sequence from amino acids 93-497 cloned into PGex4T1 via BamH1 and XhoI. Amino acids 93-497 were amplified from full length XIAP in pGex4t3, using the primers: […] and GCTGCATGTGTGTCAGAGG, using standard PCR conditions. The PCR fragment was TA cloned into pCR-2.1 (invitrogen). Linker BIR2BIR3Ring was subcloned into pGex4T1 by BamHI/XhoI digestion. The plasmid was transformed into E. coli DH5α for use in protein expression and purification. […]
100 ug of 293 cell S100 extract and 0.25 uM-2 uM of GST-XIAP fusion protein (XIAP-Bir3RING, XIAP-Linker Bir2Bir3RING, or full-length XIAP) were co-incubated with serial dilutions of compound (40 uM-5 pM). Caspases present in the extracts were activated by adding 1 mM dATP, 0.1 mM ALLN, 133 ug Cytochrome C (final concentrations), and incubating at 37° C. for 25 minutes. All reactions and dilutions used S100 buffer (50 mM Pipes pH 7.0, 50 mM KCl, 0.5 mM EGTA pH 8.0, 2 mM MgCl2 supplemented with 1/1000 dilutions of 2 mg/ml Cytochalisin B, 2 mg/ml Chymotstatin, Leupeptin, Pepstatin, Antipain, 0.1M PMSF, 1M DTT). Final reaction volume was 30 ul. Caspase-3 activity was measured by overlaying 30 ul of a 0.4 mM DEVD-AMC solution. released AMC cleavage was measured in a TECAN spectrophotometer at 360 nm excitation and 444 nm emission, on a kinetic cycle of 1 hour with readings taken every 5 minutes. Caspase activity was calculated as Vo of AMC fluorescence/sec. Caspase de-repression by our compounds was compared to fully activated extract and activated extract repressed by the presence of XIAP fusion protein.

For test [5], the target named is T3, cIAP-2 bir3 domain (GST-HIAP1(cIAP-2) BIR3) (Homo sapiens, UniProt Q13489).
T3 construct: made in house; host or cells: E. coli DH5-alpha
T3 sequence (Q13489 236-349): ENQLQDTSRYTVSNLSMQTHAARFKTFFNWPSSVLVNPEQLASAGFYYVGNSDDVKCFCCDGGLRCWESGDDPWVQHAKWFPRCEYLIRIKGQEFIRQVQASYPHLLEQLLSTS
In words: Fluorescence polarization-based competition assay, cIAP-2. It is filed as binding. Particulars: Ki calculated from displacement of fluorescent probe; read-out: Fluorescent polarization (FP) assay cIAP-2. As to the method: GST-HIAP1(cIAP-2) BIR3: HIAP1 coding sequence from amino acids 236-349, cloned into PGex4T3 via BamH1 and XhoI. The plasmid was transformed into E. coli DH5α for use in protein expression and purification.
as §1, §2, §3

The test system of another test is HCT-116 tumors. Description: Combination anti-cancer therapy in vivo (HCT-116 tumors, with mitomycin-C). To be noted: HCT-116 tumors in female nude mice. The procedure:
Female nude mice received […] HCT-116 subdermally on the right flank. On day 26, when tumors were […], animals were assigned to groups using a balanced design based on tumor size. At that time mitomycin-C and Compound 23 treatment was initated. Mitomycin-C was administered ip at 1 mg/kg, Monday through Friday for two weeks. Compound 23 was given iv at 1 or 5 mg/kg five times per week for the duration of the experiment. Tumor measurements were taken twice weekly.

Test [6] concerns the target T4, cIAP-1 bir3 domain (GST-HIAP2 (cIAP-1) BIR3) (Homo sapiens, UniProt Q13490).
T4 construct: made in house; host or cells: E. coli DH5-alpha
In words: Fluorescence polarization-based competition assay, cIAP-1. It is filed as binding. Particulars: Ki calculated from displacement of fluorescent probe; read-out: Fluorescent polarization (FP) assay cIAP-1. As to the method:
GST-HIAP2 (cIAP-1) BIR3: HIAP2 coding sequence from amino acids 251-363 cloned into PGex4T3 via BamH1 and XhoI. The plasmid was transformed into E. coli DH5α for use in protein expression and purification.
as §1, §2, §3

The text below walks through data of patent publication US8063095B2, “IAP BIR domain binding compounds” (Pharmascience Inc., priority 2005, dated 2011).

The structures appear in SMILES notation.

T1 sequence (P98170 246-497): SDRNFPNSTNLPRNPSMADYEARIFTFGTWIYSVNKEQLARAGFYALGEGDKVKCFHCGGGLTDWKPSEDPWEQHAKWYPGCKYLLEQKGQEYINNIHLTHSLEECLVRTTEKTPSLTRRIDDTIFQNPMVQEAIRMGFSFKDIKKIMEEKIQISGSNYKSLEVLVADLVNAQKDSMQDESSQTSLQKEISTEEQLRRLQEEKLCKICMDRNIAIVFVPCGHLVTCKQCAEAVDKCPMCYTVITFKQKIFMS
T4 sequence (Q13490 251-363): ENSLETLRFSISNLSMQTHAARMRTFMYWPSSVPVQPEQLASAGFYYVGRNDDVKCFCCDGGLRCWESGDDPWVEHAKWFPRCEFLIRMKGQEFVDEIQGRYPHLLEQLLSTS

Consider `CN[C@@H](C)C(=O)N[C@H](C(=O)N1CCC[C@H]1C(=O)N[C@@H]1CCCc2ccccc21)[C@@H](C)OCC#CC#CCO[C@H](C)[C@H](NC(=O)[C@H](C)NC)C(=O)N1CCC[C@H]1C(=O)N[C@@H]1CCCc2ccccc21` [Compound 23], for which the Ki is at most 100 nM in test [1], at most 100 nM in test [5] and at most 5 nM in test [6]. In addition, the EC50 in test [2] and in test [3] was below 100 nM each time. In test [4], the IC50 – broadly, the point on the concentration scale where inhibition reaches its midpoint – was at most 500 nM. For the same molecule, the “anti-tumor effect at 5 mg/kg compared to the 1 mg/kg dose” value in the test with HCT-116 tumors (5 mg/kg iv in combination with mitomycin-C ip 1 mg/kg) is reported as “superior anti-tumor effects”. Besides, in the test on HCT-116 tumors (iv at 1 or 5 mg/kg five times per week, mitomycin-C ip 1 mg/kg), the “anti-tumor effect in combination with mitomycin-C” value was “increasing anti-tumor effect in combination with mitomycin-C with increasing dose”.
